The subject of one test is Cb1. Briefly: Cb1 tyrosine phosphorylation (immunoprecipitation/Western blot), NIH3T3 cells. The test is classed as cell-based. The settings on record: 10 μM, 20 minutes. On the procedure:
To determine the role of C3G and its complex in Rap1 activation, NIH3T3 cells were grown and treated for 20 minutes in the presence or absence of H89 (10 μM) or PP2 [AG1879; 4-amino-5-(4-chlorophenyl)-7-(t-butyl)pyazolo[3,4-d]pyrimidine, LY294002 [2-(4-Morpholinyl)-8-phenyl-4H-1-bemzopyran-4-one] (10 μM, Cal Biochem), treated with Forskolin (10 μM, Cal Biochem) for five minutes, and cell lysates prepared, as described above. Endogenous Cb1 was immunoprecipitated using a Cb1 antibody (Santa Cruz Biotechnology Inc.) from cell lysates and analyzed by Western blot for tyrosine phosphorylation, using a pTyr antibody (Santa Cruz Biotechnology Inc.) as described above. Briefly, for immunoprecipitation of Cb1, equal amounts of cell lysate per condition were precipitated at 4° C. for 4 to 6 hours in lysis buffer. Proteins were resolved by SDS-PAGE, blotted onto PVDF membranes and probed with the appropriate antibodies. All Western blots and immunoprecipitations were performed at least three times.
Background: A western blot detects proteins with antibodies after separation by electrophoresis.

Another test relates to Rap1. The following applies: NIH3T3 cells, pretreatment; cited from earlier work.
The next test concerns ERK1/2. Briefly: ERK phosphorylation Western blot, Hek293 cells. The test is classed as cell-based. The settings on record: 10 μM, 20 minutes pretreatment. As to the method: To examine the downstream consequences of Src-dependent signaling in Hek293 cells, ERK activation was measured using pERK antibodies (pERK1/2). Hek293 cells received no pretreatment or were pretreated for 20 minutes with H89 (10 μM), PP2 (10 μM), or LY (10 μM), and stimulated for 5 minutes with isoproterenol (10 μM), Forskolin (10 μM), or 100 ng/ml EGF, using the methods described above. Cell lysates were analyzed by Western blotting for the presence of pERK1/2 (New England Biolabs) or total ERK2 (Santa Cruz Biotechnology) as a control for protein loading.
To determine the role of PKA phosphorylation of Src serine 17 in ERK activation by cAMP, Hek293 cells were transfected with myc-ERK2 in the presence or absence of SrcS17A or SrcS17D, and stimulated with 10 μM isoproterenol. MycERK2 was immunoprecipitated from cell lysates using an agarose-coupled Myc antibody followed by western blotting for phospho-ERK (pMycERK2, upper panel) or total MycERK2 with a Myc antibody, as a control for protein loading.

The test system of the next test is AKT. Description: AKT phosphothreonine 308 Western blot, Hek293 cells. The test is classed as cell-based. On the procedure:
To determine the physiological role of Ras signaling in Hek293 cells, a well-known Ras effector, phosphoinositol-3 kinase (PI3-K) and its target, AKT (a serine/threonine kinase which participates in a variety of cellular effects including cell survival, adhesion, and cell growth) were examined as follows. Hek293 cells received no pretreatment or were pretreated for 20 minutes with H89 (10 μM), PP2 (10 μM), or LY (10 μM), and stimulated for 5 minutes with isoproterenol. Cell lysates were analyzed by Western blotting for phospho-AKT (PAKT 308, Cell Signaling, Beverly, Mass.) or total AKT (Cell Signaling) as a control. Isoproterenol activated AKT, as measured by phosphorylation-specific antibodies to phosphothreonine 308 (AKT). This phosphorylation required P13-K as LY blocked isoproterenol-induced phosphorylation at this site. Moreover, this phosphorylation was blocked by PP2, but not H89, indicating the requirement of SFKs, but not PKA. Therefore, isoproterenol's activation of AKT proceeds through Src and PI3-K but not PKA.
Similar amounts of cell lysate (determined by protein concentrations) were immunoprecipitated using an agarose-coupled HA antibody followed by Western blotting for phospho-AKT (PHA-AKT 308) or total HA-AKT with an HA antibody (12CA5, Boehringer Mannheim, Indianapolis, Ind.).

A further test concerns Cb1/C3G with Src. Description: Co-immunoprecipitation of Src, Cb1 and C3G, Hek293 cells. The test is classed as cell-based. On the procedure: To examine whether a similar mechanism might underlie signaling from GPCRs, the following methods were used. Hek293 cells were transfected with Flag-tagged SrcWT, SrcS17A, or SrcS17D, using the methods disclosed herein. Cells were treated with 10 μM isoproterenol and equivalent amounts of lysates immunoprecipitated with Flag antibody. The presence of endogenous Cb1 within the eluates was examined by Western blotting. The ability of isoproterenol to induce Rap1-recruitment of B-Raf was blocked by both Cb1-ct and CBR.
Cells were treated with isoproterenol or left untreated and equal amounts of lysates immunoprecipitated with Myc antibody and the presence of endogenous C3G within the eluates examined by Westein blot using the methods disclosed herein.
Equivalent amounts of lysates were immunoprecipitated with Flag antibody and the presence of endogenous C3G within the eluates was examined by Western blots as described herein.

Consider `O=S(=O)(NCCNC/C=C/c1ccc(Br)cc1)c1cccc2cnccc12` [H89, N-[2(Bromocimamylamino)ethyl]-5-isoquinolinesulfonamide], for which the “Effect on Forskolin-stimulated Cb1 tyrosine phosphorylation” value in the test on Cb1 is on record as “inhibited”. The “Effect on Forskolin's activation of endogenous Rap1” value in the test on Rap1 is recorded as “blocked”. Further, in the test with ERK1/2, the “Effect of inhibitor on isoproterenol's phosphorylation of ERK” value is on record as “inhibited”.

Take `CC(C)(C)n1nc(-c2ccc(Cl)cc2)c2c(N)ncnc21` [PP2, 4-amino-5-(4-chlorophenyl)-7-(t-butyl)pyazolo[3,4-d]pyrimidine]: the “Effect on Forskolin-stimulated Cb1 tyrosine phosphorylation” value in the test with Cb1 is on record as “inhibited”. For the same molecule, in the test with ERK1/2, the “Effect of inhibitor on isoproterenol's phosphorylation of ERK” value is reported as “inhibited”. Moreover, the “Effect of inhibitor on isoproterenol-induced AKT phosphorylation” value with AKT (10 μM, 20 minutes pretreatment) is on record as “blocked”.

As to `CC(C)NCC(O)c1ccc(O)c(O)c1` (centres unmarked) [isoproterenol], the “Activation of AKT (phosphothreonine 308)” value with AKT (5 minutes) is reported as “activated AKT”. Besides, in the test on Cb1/C3G with Src, the “Association between C3G and transfected Cb1” value is recorded as “induced an association”.

Values taken from patent publication US20050037446A1, “Agents that recognize src when phosphorylated at serine 17” (priority 2001, published 2005).
